In the supplement of paper PMC10307832:

What was measured:
Test in all cases: relative viability (nuclei count vs DMSO), 5 days (fraction); higher = more cells survive
SGI-1776 + Olaparib = compound: CN1CCC(CNc2ccc3ncc(-c4cccc(OC(F)(F)F)c4)n3n2)CC1 [SGI-1776] + O=C(c1cc(Cc2n[nH]c(=O)c3ccccc23)ccc1F)N1CCN(C(=O)C2CC2)CC1 [Olaparib] (partner 8 µM)
Summary of the method: (§1)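 A single step with final 0.05% Triton X-100, 1% formaldehyde and 1 ug/ml Hoechst fixed the cells and stained nuclei 5 days after treatment. Lung cancer cell lines in 1536-well plates had been treated by pin tool the day after seeding with one drug alone or a fixed anchor-drug dose plus five library-drug doses (not always all listed) in √10 steps, and nuclei were counted on 4× images. Relative viability is the ratio of nuclei in treated wells to nuclei in vehicle wells, taken as the median of duplicate plates.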

Entinostat + Phenformin = compound: Nc1ccccc1NC(=O)c1ccc(CNC(=O)OCc2cccnc2)cc1 [Entinostat] + N=C(N)NC(=N)NCCc1ccccc1 [Phenformin] (partner 250 µM)
Summary of the method: as §1

[1] = compound: C1COCCN1C2=NC(=NC3=C2OC4=C3C=CC=N4)C5=CC(=CC=C5)NC(=O)C6=CN=C(C=C6)N + CC(=O)c1c(C)c2cnc(Nc3ccc(N4CCNCC4)cn3)nc2n(C2CCCC2)c1=O [Palbociclib] (partner 0.5 µM)
Summary of the method: as §1

SGI-1776 + Phenformin = compound: CN1CCC(CNc2ccc3ncc(-c4cccc(OC(F)(F)F)c4)n3n2)CC1 [SGI-1776] + N=C(N)NC(=N)NCCc1ccccc1 [Phenformin] (partner 250 µM)
Summary of the method: as §1

Cell Line	relative viability (SGI-1776 + Olaparib; first compound 0.08 µM)	relative viability (SGI-1776 + Olaparib; first compound 0.8 µM)	relative viability (SGI-1776 + Olaparib; first compound 2.53 µM)	relative viability (SGI-1776 + Olaparib; first compound 8 µM)	relative viability (Entinostat + Phenformin; first compound 0.02 µM)	relative viability (Entinostat + Phenformin; first compound 0.06325 µM)	relative viability (Entinostat + Phenformin; first compound 0.2 µM)	relative viability (Entinostat + Phenformin; first compound 0.6325 µM)	relative viability (Entinostat + Phenformin; first compound 2 µM)	relative viability ([1]; first compound 0.02 µM)	relative viability ([1]; first compound 0.06325 µM)	relative viability ([1]; first compound 0.2 µM)	relative viability ([1]; first compound 0.6325 µM)	relative viability ([1]; first compound 2 µM)	relative viability (SGI-1776 + Phenformin; first compound 0.08 µM)	relative viability (SGI-1776 + Phenformin; first compound 0.8 µM)	relative viability (SGI-1776 + Phenformin; first compound 2.53 µM)	relative viability (SGI-1776 + Phenformin; first compound 8 µM)
NCI-H1650	0.8	0.946	0.734	0.607	0.54	0.498	0.49	0.419	0.256	0.336	0.321	0.274	0.39	0.287	0.441	0.368	0.248	0.129
NCI-H727	0.69	0.639	0.659	0.679	0.457	0.689	0.581	0.436	0.43	0.579	0.592	0.613	0.666	0.77	0.525	0.577	0.552	0.498
NCI-H1755	0.913	0.848	0.798	0.671	0.605	0.613	0.569	0.513	0.349	0.418	0.481	0.442	0.426	0.365	0.617	0.584	0.576	0.516
NCI-H1651	0.205	0.187	0.18	0.174	0.326	0.371	0.453	0.335	0.185	0.51	0.509	0.499	0.495	0.395	0.386	0.396	0.311	0.251
NCI-H647	0.67	0.484	0.438	0.206	0.54	0.555	0.405	0.158	0.0748	0.408	0.433	0.38	0.279	0.25	0.499	0.499	0.47	0.151
NCI-H1944	0.411	0.406	0.422	0.354	0.193	0.182	0.168	0.13	0.142	0.354	0.381	0.336	0.304	0.253	0.186	0.188	0.189	0.164
LK-2	0.783	0.768	0.717	0.579	0.497	0.761	0.576	0.383	0.32	0.71	0.646	0.82	0.501	0.356	0.396	0.515	0.428	0.168
HCC-15	0.717	0.759	0.755	0.687	0.491	0.461	0.453	0.246	0.175	0.742	0.775	0.67	0.682	0.574	0.45	0.417	0.372	0.343
NCI-H838	0.776	0.754	0.695	0.56	0.706	0.852	0.677	0.426	0.198	0.194	0.212	0.195	0.197	0.175	0.622	0.633	0.52	0.335
HOP-62	0.436	0.63	0.448	0.59	0.614	0.6	0.773	0.412	0.266	0.529	0.513	0.444	0.426	0.182	0.728	0.616	0.704	0.623
NCI-H322M	0.871	0.772	0.812	0.697	0.799	0.963	0.99	0.809	0.664	0.485	0.536	0.54	0.48	0.384	0.875	0.846	0.786	0.552
NCI-H1395	0.473	0.452	0.438	0.347	0.441	0.494	0.421	0.417	0.416	0.602	0.597	0.617	0.592	0.645	0.464	0.434	0.46	0.413
NCI-H650	0.455	0.409	0.438	0.326	0.491	0.466	0.431	0.455	0.318	0.308	0.325	0.35	0.345	0.287	0.521	0.438	0.435	0.368
NCI-H661	0.733	0.754	0.843	0.846	0.281	0.266	0.303	0.269	0.192	0.396	0.402	0.387	0.375	0.374	0.269	0.271	0.306	0.246
NCI-H1734	0.69	0.691	0.715	0.567	0.439	0.509	0.488	0.342	0.315	0.413	0.355	0.342	0.33	0.271	0.41	0.366	0.394	0.284
EKVX	0.827	0.906	0.875	0.737	0.225	0.243	0.227	0.222	0.205	0.357	0.393	0.353	0.373	0.438	0.237	0.241	0.24	0.241
NCI-H520	0.36	0.318	0.386	0.203	0.497	0.723	0.701	0.615	0.49	0.206	0.236	0.226	0.207	0.189	0.687	0.597	0.53	0.316
NCI-H2342	0.525	0.445	0.454	0.49	0.6	0.639	0.518	0.584	0.468	0.525	0.522	0.505	0.512	0.515	0.696	0.669	0.532	0.501
